Experimental data as given in patent publication US20040029196A1, “Epithelial cell lines from gene knockout mice and methods of use thereof” (priority 2001, published 2004).
Marks after values point to notes of the source that are not given here.

Legend:
[1] = test system: Apc [+/−] 1638NCOL cells; assay: Cytostatic growth arrest (cell population doubling); type: cell-based, mouse; conditions: for No. of population doublings: mean ± SD, n = 3
Description: (§1) Differential susceptibility of C57COL (wild type Ape [+/+]), the control cell line, and 1638NCOL (Apc [+/−]) to growth inhibition by mechanistically distinct prototype chemopreventive test compounds was evaluated in a conventional cell survival assay, while the preventive efficacy of the test compounds was evaluated using optimized quantitative flow cytometry-based cell cycle analysis. Optimization of flow cytometry based cell cycle analysis is published (7, 8, 10, 11) and is needed in view of batch-to-batch variations in commercially available fluorescein isothiocyanate-conjugated antibodies.
(§2) Selective susceptibility of Ape [+/−] 1638NCOL cells to a prototype chemopreventive agent sulindac (SUL) was examined by comparing its effect on Ape [+/+] C57COL and Ape [+/−] 1638NCOL cells. The cytostatic growth arrest response, evidenced by a decrease in cell population doubling, was about 2-3 fold higher in Ape [+/−] cells as compared to that of Ape [+/+] cells (Table 3).
The dose response and efficacy studies involved treatment of cell cultures with five log μM concentrations of each compound (0.01, 0.1, 1.0, 10.0 and 100.0 μM). […] The cytostatic effect of treatment with high doses (100 μM) was associated with down regulated cell population doubling, altered aneuploid G0/G1: S+G2/M ratio, and decreased number of anchorage independent colonies (Table 4).
(§3) The cell lines were characterized for expression of epithelium specific proteins (cytokeratins), Apc gene product (full length, as opposed to truncated forms which are differentially reactive to carboxyl and amino terminal Apc antibodies), and cytodifferentiation (MUC1, acid mucopolysaccharide, alkaline phosphatase) using standard assays for immunocytochemical analysis. The growth kinetics were determined based on the time-dependent increase in the number of viable cells relative to the initial seeding density. The cell cycle progression and anchorage-independent growth were determined using fluorescence assisted flow cytometry and colony forming assays, respectively, as previously described (4, 7-11). The expression profile of specific gene products (proteins) involved in the regulation of cell cycle progression, apoptosis, and differentiation was also quantified using recently optimized cellular epifluorescence assays (10, 11).

[2] = test system: Apc [+/−] 1638NCOL cells; assay: Flow cytometry-based aneuploid cell cycle progression analysis; design: species or system mouse; conditions: for G0/G1:S + G2/M ratio (aneuploid cell cycle progression): mean ± SD, n = 3
Description: Aneuploidy: Fluorescence assisted cell sorting and flow cytometry of cells stained with DNA binding fluorescent dyes. Diploid and aneuploid cells accumulate as distinct peaks on the DNA histograms obtained from flow cytometric analysis.
as §1, §3

[3] = test system: Apc [+/−] 1638NCOL cells; assay: Dose response in conventional cell survival assay (growth arrest, toxicity); type: cell-based, mouse; design: key to Toxicity: +: Toxicity, surviving cell population lower than initial seeding density; conditions: for No effect: 0.01 μM
Description: as §1
The dose response and efficacy studies involved treatment of cell cultures with five log μM concentrations of each compound (0.01, 0.1, 1.0, 10.0 and 100.0 μM).

[4] = test system: Apc [+/−] 1638NCOL cells; assay: Anchorage-independent growth (soft agar colony formation); type: cell-based, mouse; conditions: 100 μM
Source text: Anchorage-independent growth: The ‘soft’ agar growth assay monitors the ability of cells to form non adherant colonies. Single cells suspended in 0.33% agar are overlaid on a basement matrix. These cultures are maintained for about 10-14 days and resulting colonies are counted.
as §3

[5] = test system: C57COL (Apc [+/+]) cells; assay: Cytostatic growth arrest (cell population doubling), control cell line; type: cell-based, mouse
Description: as §1, §2, §3

Compound | % Change in no. of population doublings versus EtOH control ([1]; 1 μM) | No. of population doublings ([1]; 1 μM) | % Change in no. of population doublings versus EtOH control ([1]; 10 μM) [%] | No. of population doublings ([1]; 10 μM) | G0/G1:S + G2/M ratio (aneuploid cell cycle progression) ([2]; 1 μM) | Cell cycle phase ([2]; 10 μM) | G0/G1:S + G2/M ratio (aneuploid cell cycle progression) ([2]; 10 μM) | No effect [3] | Growth arrest (%) ([3]; 1 μM (Table 8)) | Growth arrest (%) ([3]; 0.1-10 μM) | % Change in no. of population doublings versus EtOH control ([1]; 100 μM) [%] | Cell Population Doubling ([1]; 100 μM) | No. of population doublings ([1]; 100 μM) | Cell cycle phase ([2]; 1 μM) | Aneuploid G0/G1:S + G2/M ratio ([2]; 100 μM) | Cell cycle phase ([2]; 100 μM) | G0/G1:S + G2/M ratio (aneuploid cell cycle progression) ([2]; 100 μM) | Anchorage-independent colonies [4] | Growth arrest (%) ([3]; 100 μM) | Growth arrest (%) ([3]; 100 μM (Table 8)) | further results
NCCCNCCSP(=O)(O)O [AMF, Amifostine] | −17.2% | 8.2 ± 0.2 | −37.4 | 6.2 ± 0.3 | 9.6 ± 0.7 | G1 arrest | 10.9 ± 0.6^c | + (No effect <20% inhibition of surviving cell population) | 25 | 25-40% | – | – | – | – | – | – | – | – | – | – | Growth arrest (%) ([3]; 10 μM (Table 8)): 40%; Toxicity ([3]; 100 μM): +
CC1=C(/C=C/C(C)=C\C=C\C(C)=C\C(=O)O)C(C)(C)CCC1 [Agent 9cisRA, 9cis retinoic acid] | −32.3% | 6.7 ± 0.2 | – | – | 13.8 ± 0.5^c | – | – | + (No effect <20% inhibition of surviving cell population) | 30 | 30% | −53.5 | 4.6 ± 0.1 | 4.6 ± 0.1^c | G1 arrest | 18.5 ± 0.2 | G1 arrest | 22.1 ± 0.6^c | 4.4 ± 1.2 | 60 | 60 | –
Cc1c(-c2cnccn2)ssc1=S [OLT, Oltipraz] | +8.1% | 10.7 ± 0.2 | – | – | 1.0 ± 0.2^d | – | – | + (No effect <20% inhibition of surviving cell population) | 2 | 2% | −15.1 | 8.4 ± 0.4 | 8.4 ± 0.4 | S,G2M arrest | 7.2 ± 0.1 | S,G2M arrest | 1.2 ± 0.1^d | 15.8 ± 1.8 | 25 | 25 | –
CC1=C(CC(=O)O)c2cc(F)ccc2/C1=C\c1ccc([S+](C)[O-])cc1 (stereo not shown) [SUL, Sulindac] | −23.2% | 7.6 ± 0.3 | – | – | 6.6 ± 0.4^d | – | – | + (No effect <20% inhibition of surviving cell population) | 30 | 30% | −61.6 | 3.8 ± 0.2 | 3.8 ± 0.2^c | – | 13.9 ± 0.5 | G1arrest | 13.9 ± 0.8^c | 0.5 ± 0.3 | 70 | 70 | inhibition at 1 µM ([5]; Mus musculus, 120 h, SUL 1 μM, day 5): 10.2%; inhibition at 10 µM ([5]; Mus musculus, 120 h, SUL 10 μM, day 5): 15.4%; inhibition at 100 µM ([5]; Mus musculus, 120 h, SUL 100 μM, day 5): 71.8%; Cell Population Doubling at Day 5 Post-Seeding ([5]; SUL 1 μM): 3.5 ± 0.4; Cell Population Doubling at Day 5 Post-Seeding ([5]; SUL 10 μM): 3.3 ± 0.7; Cell Population Doubling at Day 5 Post-Seeding ([5]; SUL 100 μM): 1.1 ± 0.5; Cell Population Doubling at Day 5 Post-Seeding ([1]; 1638NCOL (Apc [+/−]), SUL 1 μM): 4.8 ± 0.6; Cell Population Doubling at Day 5 Post-Seeding ([1]; 1638NCOL (Apc [+/−]), SUL 10 μM): 4.4 ± 0.4; Cell Population Doubling at Day 5 Post-Seeding ([1]; 1638NCOL (Apc [+/−]), SUL 100 μM): 2.3 ± 0.3; Cytostatic growth arrest response (decrease in cell population doubling) in Apc [+/−] cells as compared to Apc [+/+] cells ([1]; 1638NCOL versus C57COL): 2-3 fold; inhibition at 1 µM ([1]; Mus musculus, 120 h, 1638NCOL (Apc [+/−]), SUL 1 μM, day 5): 34.2%; inhibition at 10 µM ([1]; Mus musculus, 120 h, 1638NCOL (Apc [+/−]), SUL 10 μM, day 5): 39.7%; inhibition at 100 µM ([1]; Mus musculus, 120 h, 1638NCOL (Apc [+/−]), SUL 100 μM, day 5): 68.5%
CC/C(=C(\c1ccccc1)c1ccc(OCCN(C)C)cc1)c1ccccc1 [TAM, Tamoxifen] | −23.2% | 7.6 ± 0.4 | −28.3 | 7.1 ± 0.2 | 2.7 ± 0.9^d | S,G2M arrest | 1.8 ± 0.8^d | + (No effect <20% inhibition of surviving cell population) | 20 | 20-30% | – | – | – | S,G2M arrest | – | – | – | – | – | – | Growth arrest (%) ([3]; 10 μM (Table 8)): 30%; Toxicity ([3]; 100 μM): +
